Test results taken from patent US10450317B2, “Notch pathway signaling inhibitor compounds” (Eli Lilly and Company, priority 2015, dated 2019).
pIC50: −log10 of the molar value.

Columns and labels:
[1] = tested on: mouse Notch1; experiment: Notch1 N1ICD nuclear accumulation cellular imaging assay; format: cell-based; conditions: HEK293ΔE12 cells, 24 hours treatment, n=2; read-out: average IC50 for the nuclear N1ICD signal
Protocol: HEK293ΔE12 cells (HEK293 cells are engineered to stably express mouse Notch1 cDNA coding for amino acid 1703-2183, Np_932740.3, (Full length mouse Notch 1 protein precursor: SEQ ID NO:1) with 23 amino acid signal peptide sequence, […] (SEQ ID NO:2), at its N-terminus) are plated at 5000 cells/well in 96 well plates, incubated in Dulbecco's Modified. Eagle's Medium (DMEM)-high glucose with 5% fetal bovine serum (FBS) at 37° C., 5% CO2 for 24 hours. Cells are treated with test compound, dosing at 10 points of 1:3 dilutions across the range of 1000 nM to 0.05 nM, and with final dimethyl sulfoxide (DMSO) concentration at 0.2%. […] Plates are scanned with ACUMEN EXPLORER™ Laser-scanning fluorescence microplate cytometer (TTP LABTECH LTD) to measure total cell nuclear count/well and total nuclear area/well with fluorescence at 655 nm-705 nm (emission of DNA bound propidium iodide) and fluorescence of antibody binding to N1ICD in nuclear region at 505 nm-530 nm. The main assay output is a ratio of total fluorescence of nuclear N1ICD to total nuclear area, the normalized nuclear N1ICD signal. […] Concentration response and the IC50 are determined by curve fitting to a four parameter logistic for the nuclear N1ICD signal, while the % cell number is plotted in the same graph for cytotoxicity profiling.

[2] = tested on: hAtoh1; experiment: Induction of hAtoh1 expression in human tumor cell line LS174T (qPCR); format: cell-based; conditions: LS174T cells, 72 hours, read-out: IC50 (relative expression of hAtoh1)
Protocol: To evaluate potency of Compounds 1, Isomer 2 and 2, Isomer 2 in their ability to induce hAtoh1 expression, a human tumor cell line is utilized. Endogenous Notch signaling regulation for this cell line is similar to that in the inner ear. Generally, this assay is carried out following principles in Kazanjian et al., Gastroenterology, 2010, 139(3): 918-928 and Supplementary Materials and Methods.
Generally, standard cell culture techniques are used. Low passage human colorectal adenocarcinoma cell line LS174T (ATCC CL-188) maintained in Growth Medium (MEM 10% FBS) is plated 10,000 cells in 100 μl Assay Medium (MEM 1% FBS) per well into 96-well tissue culture treated plates. […]
To quantify the expression of hair cell markers from the […], qPCR probes to detect hAtoh1 or TBP expression in a single two-color multiplex reaction is carried out. […] Relative gene expression between treatment groups is analyzed using the ΔΔCT method and replicate measurements are averaged.
Four separate assays are carried out to obtain IC50 values for each test compound. The IC50 value is determined by fitting concentration response data to “log(antagonist) vs. response (three parameter)” model using GraphPad Prism® software for 12 doses across a concentration range of 4.0E-11 to 1.0E-6 M with 108 total points analyzed for each compound.

Row | pIC50 [1] | pIC50 [2] | Structure (SMILES)
1 | 9.43 | 7.78 | COc1ccc2c(c1)N1CCC(C)(C)C1=CC(=O)C2NC(=O)[C@H](C)NC(=O)CCC(F)(F)F (single isomer, unassigned) [Compound 1, Isomer 2]
2 | 8.81 | 7.26 | C[C@H](NC(=O)CCC(F)(F)F)C(=O)NC1C(=O)C=C2N(CCC2(C)C)c2ncccc21 (single isomer, unassigned) [Compound 2, Isomer 2]
